Reference: patent publication US6140327A, “Morpholino-n-ethyl ester derivative of an indole sPLA2 inhibitor” (Eli Lilly and Company, priority 1999, dated 2000)

Columns and labels:
[1] = Monkey Pharmacokinetic Study (bioavailability); type: in vivo; details: conclusion compared with other esters of the parent and the 2-methyl homolog, oral administration
Description: Plasma was assayed by HPLC to measure concentrations of the different sPLA2 inhibitors (measured as free acids).
Cmax (maximal plasma concentrations), and AUC values were determined from the mean plasma concentration-time profiles.

[2] = target: recombinant human secreted phospholipase A2; details: cited from earlier work
[3] = target: recombinant human secreted phospholipase A2; details: guinea pig lung tissue; sPLA2 10 ug/ml; read-out: Tissue test secreted PLA2 Apparent KB; cited from earlier work

## CCc1c(C(=O)C(N)=O)c2c(OCC(=O)OCCN3CCOCC3)cccc2n1Cc1ccccc1 [Compound 1, ((3-(2-amino-1,2-dioxoethyl)-2-ethyl-1-(phenylmethyl)-1H-indol-4-yl)oxy)acetic acid morpholino-N-ethyl ester]
[1]
  bioavailability (in words): unexpectedly more bioavailable than other esters of the parent sPLA2 inhibitor of formula II and also more bioavailable than the 2-methyl homolog of the parent sPLA2 inhibitor of formula II
[1]; listed as formula (I)
  bioavailability (in words): highly bioavailable upon oral administration compared to closely related ester type prodrugs

## CCc1c(C(=O)C(N)=O)c2c(OCC(=O)O)cccc2n1Cc1ccccc1 [formula (II), ((3-(2-amino-1,2-dioxoethyl)-2-ethyl-1-(phenylmethyl)-1H-indol-4-yl)oxy)acetic acid]
[2]; chromogenic assay, 3-4 tests, read-out: Inhibition of human secreted PLA2 IC50 ± mean deviation (3-4 tests)
  IC50: 9 ± 1.73 nM
[2]; conclusion of Table I
  inhibiting sPLA2 (conclusion in words): highly active in inhibiting sPLA2
[3]
  Kb: 88.7 ± 18.2 nM
